Assay results reported in patent US20260355165A1, “2,3,4,9-TETRAHYDRO-1H-PYRIDO[3,4-B]INDOLE DERIVATIVES AS ESTROGEN RECEPTOR MODULATORS FOR THE TREATMENT OF CANCER” (Olema Pharmaceuticals, Inc., priority 2022, published 2026).

What follows are compounds tested against T1, estrogen receptor (Homo sapiens, UniProt P03372) (assay: AP assay (alkaline phosphatase activity in ECC-1 cells), agonist mode (absence of E2) and antagonist mode (presence of 500 pM E2)). Settings: 3 days, AP activity normalized to 500 pM E2 alone, agonist and antagonist mode combined.
T1 construct: endogenous in cells; host or cells: ECC-1 cells
T1 sequence (P03372 1-595): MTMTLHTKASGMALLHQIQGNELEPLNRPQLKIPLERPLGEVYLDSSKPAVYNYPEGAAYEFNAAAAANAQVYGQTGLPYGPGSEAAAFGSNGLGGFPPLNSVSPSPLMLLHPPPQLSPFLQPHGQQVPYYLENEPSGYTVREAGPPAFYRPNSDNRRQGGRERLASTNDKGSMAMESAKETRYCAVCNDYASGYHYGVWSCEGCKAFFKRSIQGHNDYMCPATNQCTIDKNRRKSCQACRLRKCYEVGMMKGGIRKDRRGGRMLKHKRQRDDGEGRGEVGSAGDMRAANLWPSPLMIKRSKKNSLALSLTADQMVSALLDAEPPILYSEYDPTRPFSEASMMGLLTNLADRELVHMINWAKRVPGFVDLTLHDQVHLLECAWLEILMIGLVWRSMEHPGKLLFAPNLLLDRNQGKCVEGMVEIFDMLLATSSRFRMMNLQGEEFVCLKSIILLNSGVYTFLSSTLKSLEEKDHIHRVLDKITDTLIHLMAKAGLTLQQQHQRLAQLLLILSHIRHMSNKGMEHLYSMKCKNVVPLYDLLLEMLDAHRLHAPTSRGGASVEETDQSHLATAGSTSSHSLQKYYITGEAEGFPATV
Type: cell-based
In short: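 Read-out is absorbance at 405 nm from p-nitrophenyl phosphate cleavage (40 min, 42 °C), expressed relative to 500 pM E2 alone. Compounds were applied to ECC-1 cells in hormone-depleted medium for 3 days, either alone (agonist) or alongside 500 pM E2 (antagonist).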

For `C[C@@H]1Cc2c([nH]c3ccccc23)[C@@H](c2ccc3cc(CN4CC(CF)C4)[nH]c3c2)N1CC(C)(C)F` [Compound I-55, (1R,3R)-1-[2-[[3-(fluoromethyl)azetidin-1-yl]methyl]-1H-indol-6-yl]-2-(2-fluoro-2-methyl-propyl)-3-methyl-1,3,4,9-tetrahydropyrido[3,4-b]indole], which “Activity (estrogen receptor modulation, e.g., agonism and antagonism)” value (“Activity” below) is on record?
Its value is “+ (estrogen receptor agonism having (i) at least 80% increase in the E2-normalized signal in the AP assay (agonist mode) and (ii) no more than 80% reduction in the E2-normalized signal in the AP assay (antagonist mode))”.

With `C[C@@H]1Cc2c([nH]c3ccccc23)[C@@H](c2ccc3[nH]c(CN4CC5(CC(F)C5)C4)cc3c2)N1CC(C)(C)F` [Compound I-52, (1R,3R)-1-[2-[(6-fluoro-2-azaspiro[3.3]heptan-2-yl)methyl]-1H-indol-5-yl]-2-(2-fluoro-2-methyl-propyl)-3-methyl-1,3,4,9-tetrahydropyrido[3,4-b]indole] as the compound, how does the “Activity” value read?
Its value is “++ (estrogen receptor antagonism having (i) between 10% and 80% increase in the E2-normalized signal in the AP assay (agonist mode) and (ii) between 10% and 80% reduction in the E2-normalized signal in the AP assay (antagonist mode))”.

`C[C@@H]1Cc2c([nH]c3ccccc23)[C@@H](c2ccc3[nH]c(CN4CC[C@H](F)C4)cc3c2)N1CC(C)(C)F` [Compound I-47, (1R,3R)-2-(2-fluoro-2-methyl-propyl)-1-[2-[[(3S)-3-fluoropyrrolidin-1-yl]methyl]-1H-indol-5-yl]-3-methyl-1,3,4,9-tetrahydropyrido[3,4-b]indole] was tested. Which “Activity” value did it give?
Its value is “+ (estrogen receptor agonism having (i) at least 80% increase in the E2-normalized signal in the AP assay (agonist mode) and (ii) no more than 80% reduction in the E2-normalized signal in the AP assay (antagonist mode))”.

With `C[C@@H]1Cc2c([nH]c3ccccc23)[C@@H](c2c[nH]c3cc(C(=O)O)ccc23)N1CC(C)(C)F` [Compound I-3, 3-[(1R,3R)-2-(2-fluoro-2-methyl-propyl)-3-methyl-1,3,4,9-tetrahydropyrido[3,4-b]indol-1-yl]-1H-indole-6-carboxylic acid] as the compound, how does the “Activity” value read?
The value was “+ (estrogen receptor agonism having (i) at least 80% increase in the E2-normalized signal in the AP assay (agonist mode) and (ii) no more than 80% reduction in the E2-normalized signal in the AP assay (antagonist mode))”.

Which “Activity” value does the source give for `CC1CN(Cc2ccc3c([C@@H]4c5[nH]c6ccccc6c5C[C@@H](C)N4CC(C)(C)F)c[nH]c3c2)C1` [Compound I-6, (1R,3R)-2-(2-fluoro-2-methyl-propyl)-3-methyl-1-[6-[(3-methylazetidin-1-yl)methyl]-1H-indol-3-yl]-1,3,4,9-tetrahydropyrido[3,4-b]indole] here?
Its value is “++ (estrogen receptor antagonism having (i) between 10% and 80% increase in the E2-normalized signal in the AP assay (agonist mode) and (ii) between 10% and 80% reduction in the E2-normalized signal in the AP assay (antagonist mode))”.

With `C[C@@H]1Cc2c([nH]c3ccccc23)[C@@H](c2cc3cc(CN4CC(CF)C4)[nH]c3s2)N1CC(C)(C)F` [Compound I-63, 5-[[3-(fluoromethyl)azetidin-1-yl]methyl]-2-[(1S,3R)-2-(2-fluoro-2-methyl-propyl)-3-methyl-1,3,4,9-tetrahydropyrido[3,4-b]indol-1-yl]-6H-thieno[2,3-b]pyrrole] as the compound, how does the “Activity” value read?
The value was “++ (estrogen receptor antagonism having (i) between 10% and 80% increase in the E2-normalized signal in the AP assay (agonist mode) and (ii) between 10% and 80% reduction in the E2-normalized signal in the AP assay (antagonist mode))”.

For `C[C@@H]1Cc2c([nH]c3ccccc23)[C@@H](c2cc3[nH]c(CNCCCF)cc3s2)N1CC(C)(C)F` [Compound I-67, 3-fluoro-N-[[2-[(1S,3R)-2-(2-fluoro-2-methyl-propyl)-3-methyl-1,3,4,9-tetrahydropyrido[3,4-b]indol-1-yl]-4H-thieno[3,2-b]pyrrol-5-yl]methyl]propan-1-amine], which “Activity” value is on record?
Its value is “+ (estrogen receptor agonism having (i) at least 80% increase in the E2-normalized signal in the AP assay (agonist mode) and (ii) no more than 80% reduction in the E2-normalized signal in the AP assay (antagonist mode))”.

With `CC1CN(Cc2ccc3c([C@@H]4c5[nH]c6ccccc6c5C[C@@H](C)N4CC(F)(F)CO)n[nH]c3c2)C1` [Compound I-17, 2,2-difluoro-3-((1S,3R)-3-methyl-1-(6-((3-methylazetidin-1-yl)methyl)-1H-indazol-3-yl)-1,3,4,9-tetrahydro-2H-pyrido[3,4-b]indol-2-yl)propan-1-ol] as the compound, how does the “Activity” value read?
Its value is “+++ (estrogen receptor antagonism (i) with pIC50 greater than 7.5 and at least a 10% reduction in the E2-normalized signal in the AP assay (antagonist mode); and (ii) no more than 10% increase in E2-normalized signal in the AP assay (agonist mode))”.

`C[C@@H]1Cc2c([nH]c3ccccc23)[C@@H](c2cc(F)c3oc(CN4CC(CF)C4)nc3c2)N1CC(F)(F)CO` [Compound I-81, 2,2-difluoro-3-[(1R,3R)-1-[7-fluoro-2-[[3-(fluoromethyl)azetidin-1-yl]methyl]-1,3-benzoxazol-5-yl]-3-methyl-1,3,4,9-tetrahydropyrido[3,4-b]indol-2-yl]propan-1-ol] was tested. Which “Activity” value did it give?
The value was “+ (estrogen receptor agonism having (i) at least 80% increase in the E2-normalized signal in the AP assay (agonist mode) and (ii) no more than 80% reduction in the E2-normalized signal in the AP assay (antagonist mode))”.

`C[C@@H]1Cc2c([nH]c3ccccc23)[C@@H](c2ccc3[nH]c(CN4CC(N(C)C)C4)cc3c2)N1CC(C)(C)F` [Compound I-99, 1-[[5-[(1R,3R)-2-(2-fluoro-2-methyl-propyl)-3-methyl-1,3,4,9-tetrahydropyrido[3,4-b]indol-1-yl]-1H-indol-2-yl]methyl]-N,N-dimethyl-azetidin-3-amine] was tested. Which “Activity” value did it give?
The value was “++ (estrogen receptor antagonism having (i) between 10% and 80% increase in the E2-normalized signal in the AP assay (agonist mode) and (ii) between 10% and 80% reduction in the E2-normalized signal in the AP assay (antagonist mode))”.

Which “Activity” value does the source give for `CC1CN(Cc2nc3cc([C@@H]4c5[nH]c6ccccc6c5C[C@@H](C)N4CC(C)(C)F)ccc3o2)C1` [Compound I-76, 5-[(1R,3R)-2-(2-fluoro-2-methyl-propyl)-3-methyl-1,3,4,9-tetrahydropyrido[3,4-b]indol-1-yl]-2-[(3-methylazetidin-1-yl)methyl]-1,3-benzoxazole] here?
The value was “+++ (estrogen receptor antagonism (i) with pIC50 greater than 7.5 and at least a 10% reduction in the E2-normalized signal in the AP assay (antagonist mode); and (ii) no more than 10% increase in E2-normalized signal in the AP assay (agonist mode))”.

How did the “Activity” value turn out when `C[C@@H]1Cc2c([nH]c3ccccc23)[C@@H](c2ccc3[nH]c(CN4CC(CC#N)C4)cc3c2)N1CC(C)(C)F` [Compound I-98, 2-[1-[[5-[(1R,3R)-2-(2-fluoro-2-methyl-propyl)-3-methyl-1,3,4,9-tetrahydropyrido[3,4-b]indol-1-yl]-1H-indol-2-yl]methyl]azetidin-3-yl]acetonitrile] was run?
The value was “++ (estrogen receptor antagonism having (i) between 10% and 80% increase in the E2-normalized signal in the AP assay (agonist mode) and (ii) between 10% and 80% reduction in the E2-normalized signal in the AP assay (antagonist mode))”.

How did the “Activity” value turn out when `C[C@@H]1Cc2c([nH]c3ccccc23)[C@@H](c2n[nH]c3cc(CN4CC(C#N)C4)ccc23)N1CC(C)(C)F` [Compound I-32, 1-[[3-[(1S,3R)-2-(2-fluoro-2-methyl-propyl)-3-methyl-1,3,4,9-tetrahydropyrido[3,4-b]indol-1-yl]-1H-indazol-6-yl]methyl]azetidine-3-carbonitrile] was run?
Its value is “+ (estrogen receptor agonism having (i) at least 80% increase in the E2-normalized signal in the AP assay (agonist mode) and (ii) no more than 80% reduction in the E2-normalized signal in the AP assay (antagonist mode))”.

How did the “Activity” value turn out when `C[C@@H]1Cc2c([nH]c3ccccc23)[C@@H](c2ccc3[nH]c(CN4CC(C#N)C4)cc3c2)N1CC(C)(C)F` [Compound I-50, 1-[[5-[(1R,3R)-2-(2-fluoro-2-methyl-propyl)-3-methyl-1,3,4,9-tetrahydropyrido[3,4-b]indol-1-yl]-1H-indol-2-yl]methyl]azetidine-3-carbonitrile] was run?
The value was “+ (estrogen receptor agonism having (i) at least 80% increase in the E2-normalized signal in the AP assay (agonist mode) and (ii) no more than 80% reduction in the E2-normalized signal in the AP assay (antagonist mode))”.

For `CC(C)C1CN(Cc2cc3cc([C@@H]4c5[nH]c6ccccc6c5C[C@@H](C)N4CC(C)(C)F)ccc3[nH]2)C1` [Compound I-95, (1R,3R)-2-(2-fluoro-2-methyl-propyl)-1-[2-[(3-isopropylazetidin-1-yl)methyl]-1H-indol-5-yl]-3-methyl-1,3,4,9-tetrahydropyrido[3,4-b]indole], which “Activity” value is on record?
The value was “+ (estrogen receptor agonism having (i) at least 80% increase in the E2-normalized signal in the AP assay (agonist mode) and (ii) no more than 80% reduction in the E2-normalized signal in the AP assay (antagonist mode))”.
